Test results published in paper PMC9096233, “Identification of an Au(I) N-Heterocyclic Carbene Compound as a Bactericidal Agent Against Pseudomonas aeruginosa” (Frontiers in Chemistry, 2022).
Read-outs that look alike come from different tables or passages of the source.

Experiments:
[1] = test system: LasA protease; assay: LasA protease detection (azocasein); format: cell-based, Pseudomonas aeruginosa; details: 15 μM; 24 h
Experimental: (§1) To quantify the secreted virulence factors, overnight P. aeruginosa PAO1 was diluted in fresh M9 medium and cultured to a final OD600 value of 0.15. Then Au1 or auranofin were added into culture with indicated concentrations. After 24 h incubation at 37°C, the bacterial supernatants were collected by centrifugation at 4,000 g for 10 min at 4°C and filtered using a 0.22 μm syringe filter (Millipore). The secreted virulence factors in the supernatant were quantified by the methods described below.
For LasA protease detection, 5 μL of filtered supernatant was mixed with 1 ml of 0.5% azocasein (Sigma-Aldrich) in reaction buffer (50 mM Tris-HCl, 0.5 mM CaCl2, pH 7.5). The mixture was incubated at 37°C for 15 min. After reaction, 500 μL of 10% trichloroacetic (TCI Shanghai) acid was added and incubated for 30 min at room temperature. After centrifugation at 10,000 g for 20 min, the 440 nm absorbance of the collected supernatant was measured to quantify the secreted LasA protease.

[2] = test system: P. aeruginosa biofilm; assay: Biofilm inhibition, crystal violet; format: cell-based, Pseudomonas aeruginosa; details: 48 h static incubation
Experimental: P. aeruginosa was cultured in 24-well microtiter plate (Corning, NY, United States) for static biofilm formation. For biofilm inhibition assay, approximately 1 ml of bacterial overnight culture were diluted in fresh M9 medium with a final OD600 value of 0.33 and transferred into each well of microtiter plate in the absence or presence of sub-lethal concentration of Au1 or auranofin (2.5, 10, and 15 μM). After static incubation at 37°C for 48 h, weakly adherent planktonic cells were removed from the microtiter plate by washing with phosphate buffered saline (PBS) for three times gently. The adherent biofilms were dried and stained with 0.1% (w/v) crystal violet for 15 min. Excess dye was removed by rinsing the plate three times with PBS. Crystal violet was solubilized from the stained biofilms by adding 30% acetic acid and the biofilms were quantified by measuring the 595 nm absorbance. Each experiment was performed in triplicates.

[3] = test system: Escherichia coli MG16552; assay: MIC by standard broth dilution; format: cell-based; details: Table S1
Experimental: (§2) Pseudomonas aeruginosa strain PAO1 (P. aeruginosa) was grown in M9 minimal medium (1.0 g/L NH4Cl, 0.5 g/L NaCl, 6.0 g/L Na2HPO4, 3.0 g/L KH2PO4) supplemented with 1.0 mM MgSO4, 1.0 mM ZnSO4, 0.2 mM CaCl2, 0.4% (w/v) glucose and 0.2% (w/v) casein hydrolysate. Gram-negative Escherichia coli strain K-12 (E. coli) and Burkholderia cepacia J2315 (B. cepacia) were cultured in Luria-Bertani (LB) medium (5 g/L yeast extract, 10 g/L tryptone, 10 g/L sodium chloride). The Gram-positive Staphylococcus aureus strain Newman (S. aureus) was grown in Tryptic Soy Broth (TSB) medium (17 g/L Tryptone, 3 g/L Phytone, 5 g/L sodium chloride, 2.5 g/L dipotassium phosphate and glucose 2.5 g/L).
(§3) The minimal inhibitory concentration (MIC) values of the gallium compounds were determined using a standard broth dilution method as described previously ([Wiegand et al., 2008]). In brief, the compounds were two-fold serially diluted to concentrations from 400 to 1.56 μM. Approximately 50 μL of the compound solution was added to a 96-well microtiter plate and mixed with 50 μL of bacteria culture in log phase (10^6 CFU/ml). The bacterial culture was further incubated at 37°C for 22–24 h. The OD600 values for each well was recorded on a microplate reader. The MICs value was defined as the lowest compound concentration that inhibited 95% of the bacterial growth.

[4] = test system: Pseudomonas aeruginosa strain PAO1; assay: MIC by standard broth dilution; format: cell-based; details: read-out: MIC
Experimental: as §2, §3

[5] = test system: Staphylococcus aureus Newman; assay: MIC by standard broth dilution; format: cell-based; details: Table S1
Experimental: as §2, §3

[6] = test system: Burkholderia cepacia J2315; assay: MIC by standard broth dilution; format: cell-based; details: Table S1
Experimental: as §2, §3

[7] = test system: LasB elastase; assay: LasB elastase, Elastin-Congo red assay; format: cell-based, Pseudomonas aeruginosa; details: 15 μM; 24 h
Experimental: as §1
The LasB elastase was examined by Elastin-Congo red assay ([Morihara et al., 1965]). In brief, 700 μL of bacterial supernatant was incubated with 700 μL of 10 mg/ml Elastin-Congo (Sigma-Aldrich) red elastase substrate in reaction buffer (100 mM Tris-HCl, 1 mM CaCl2, pH 7.5) at 37°C for 3 h with shaking. Then 0.2 ml EDTA was added to a final concentration of 10 mM to stop the cleavage reaction. Insoluble pellets were removed by centrifugation and the absorbance of the supernatant at 495 nm was measured.

[8] = test system: lung carcinoma A549 cell; assay: MTT cytotoxicity assay; format: cell-based, Human; details: 48 h
Experimental: The cytotoxicity of gold compounds to mammalian cells was measured using the 3-(4, 5-dimethylthiazol-2-yl)-2, 5-diphenyltetrazolium bromide (MTT) assay. Human hepatocyte L-O2 cell, and lung carcinoma A549 cell were cultured in Corning 96 well microplates (10^4 cells per well) at 37°C for 18 h. Then the cells were incubated with gradient concentrations of gold compounds at 37°C for another 48 h. After the treatment, cell culture media were removed and the plates were wash with PBS for three times. And 90 μL fresh media and 10 μL 5 mg/ml MTT solution were added to each well and further incubated at 37°C for 4 h. Subsequently, the media were removed from the wells and 150 μL DMSO was added into each well to dissolve the formazan crystals. The absorbance at 490 nm of each well was measured with a micro-plate reader. The experiments were carried out in triplicates.

NHC^Me-Au-Cl [Au1]
decrease of LasA protease secretion [1]: 54%
lowest concentration sufficient to inhibit biofilm formation [2]: 2.5 µM
MIC [3]: <1.56 µM
MIC ([4]; P. aeruginosa PAO1, lowest concentration inhibiting 95% of growth, 22–24 h, Table 1): 25 µM
MIC ([4]; Pseudomonas aeruginosa PAO1, Table S1): 25 µM
MIC [5]: <1.56 µM
MIC [6]: 25 µM
decrease of elastase secretion [7]: 38%
IC50 [8]: 32.8 ± 1.6 µM
